The test system of test [1] is Hep 3B2.1-7 hepatocellular carcinoma cells. Put plainly: Methylene Blue Staining proliferation assay (MBS), Hep 3B2.1-7. The test is classed as cell-based. To be noted: Homo sapiens, Hep3B, Hep 3B2.1-7 cells. How it is done:
(§1) 72 hours after compound addition, cells were fixed by adding 25 μL/well of 20% glutaraldehyde (Sigma Aldrich Cat#G400-4) and incubated for 10 minutes at room temperature. Cells were washed three times with H2O, 200 μL/well and stained with 100 μL/well 0.05% methylene blue (ABCR GmbH Cat#AB117904) for 10 minutes at room temperature. […] Optical density was measured at A650 nm.
(§2) The effect of compounds on cell proliferation using Hep 3B2.1-7 hepatocellular carcinoma cells, FU97 gastric cancer cells, JHH7 hepatocellular carcinoma cells or JHH6 hepatocellular carcinoma cells is assessed as above. Hep 3B2.1-7, FU97, JHH7 or JHH6 are obtained from the Japanese Collection of Research Bioresources Cell Bank. Hep 3B2.1-7 cells are cultured in EMEM+10% FCS+1 mM Na pyruvate+2 mM L-glutamine and 2000 cells/well are seeded for the proliferation assay. FU97 cells are cultured in DMEM high glucose+10% FCS+1 mM Na pyruvate+4 mM L-glutamine+1×ITS and 2000 cells/well are seeded for the proliferation assay. JHH6 and JHH7 cells are cultured in William's E+10% FCS+2 mM L-glutamine and 3000 cells are seeded for the proliferation assay.

The test system of test [2] is HuH-7 hepatocellular carcinoma cells. Put plainly: CellTiter Glo (CTG) assay, HuH-7. The settings on record: Homo sapiens, Huh-7, 72 h, read-out: HUH7 proliferation (nM) CTG. For orientation: In ATP-based viability assays light output follows the ATP content of the culture.
Protocol: CellTiter Glo (CTG) Assay:
Compound-mediated suppression of cell proliferation/viability is assessed by quantification of cellular ATP levels using the CellTiter-Glo (CTG) reagent (Promega, Cat#G7573). […] For data analysis, the assay background value determined in wells containing medium, but no cells, is subtracted from all data points. […] The effect of a particular test compound concentration on cell proliferation/viability is expressed as percentage of the background- and day 0-corrected luminescence reading obtained for cells treated with vehicle only (DMSO, 0.1% f.c.), which is set as 100%, whereas the luminescence reading for wells containing medium only, but no cells, is set as −100%. Compound concentrations leading to half-maximal growth inhibition (GI50) are determined using standard four parameter curve fitting (XLfit 5.2., IDBS, UK).
Test [3] relates to JHH7 hepatocellular carcinoma cells. Put plainly: Methylene Blue Staining proliferation assay (MBS), JHH7. The test is classed as cell-based. How it is done:
(§3) The effect of compounds on cell proliferation is assessed using HuH-7 hepatocellular carcinoma cells obtained from the Japanese Collection of Research Bioresources Cell Bank (Cat#JCRB0403) and cultured in the vendor-recommended medium (DMEM high glucose (Amimed Cat#1-26F01-I), 10% foetal calf serum (Invitrogen Cat#16140-071), 1 mM sodium pyruvate (Amimed Cat#5-60F00-H), 1× Penicillin/Streptomycin (Amimed Cat#4-01F00-H)) at 37° C. in a humidified 5% CO2 incubator. Specifically, 5000 cells/well were seeded in 96-well tissue culture plates (TPP Cat#92696) in a total media volume of 100 μl/well and increasing compound dilutions or DMSO were added 24 hours thereafter in triplicates. 72 hours after compound addition, cells were fixed by adding 25 μL/well of 20% glutaraldehyde (Sigma Aldrich Cat#G400-4) and incubated for 10 minutes at room temperature. Cells were washed three times with H2O, 200 μL/well and stained with 100 μL/well 0.05% methylene blue (ABCR GmbH Cat#AB117904) for 10 minutes at room temperature. Cells were washed 3 times with H2O, 200 μL/well and then lysed by adding 200 μL/well of 3% HCl (Fluka Cat#84422) for 30 minutes at room temperature with shaking. Optical density was measured at A650 nm.
as §2

Test [4] has as its system FU97 gastric cancer cells. Briefly: Methylene Blue Staining proliferation assay (MBS), FU97. The test is classed as cell-based. How it is done:
as §3, §2

The subject of test [5] is HuH-7 hepatocellular carcinoma cells. Briefly: Methylene Blue Staining proliferation assay (MBS), HuH-7. The test is classed as cell-based. The settings on record: Homo sapiens, HuH-7 cells, 72 hours after compound addition, read-out: HUH7 proliferation (nM) MBS. How it is done:
Methylene Blue Staining Proliferation Assay (MBS):
as §1

This passage reports IC50 results from US10507201B2, “Use of ring-fused bicyclic pyridyl derivatives as FGFR4 inhibitors” (NOVARTIS AG, priority 2014, dated 2019).

On to `COC[C@@H](C)Oc1cc(NC(=O)N2CCCc3cc(CN4CCN(C)CC4=O)c(C=O)nc32)ncc1C#N` [Example 205, (R)—N-(5-cyano-4-((1-methoxypropan-2-yl)oxy)pyridin-2-yl)-7-formyl-6-((4-methyl-2-oxopiperazin-1-yl)methyl)-3,4-dihydro-1,8-naphthyridine-1(2H)-carboxamide], for which the IC50 worked out at 5 nM in test [1] and 17.8 nM in test [2].
Consider `COCCNc1cc(NC(=O)N2CCCc3cc(CO)c(C=O)nc32)ncc1C#N` [Example 80, N-(5-cyano-4-((2-methoxyethyl)amino)pyridin-2-yl)-7-formyl-6-(hydroxymethyl)-3,4-dihydro-1,8-naphthyridine-1(2H)-carboxamide], for which the IC50 in test [2] turned out to be 168 nM; in test [3], 150 nM; in test [4] it was 96 nM.
With `N#Cc1ccc(NC(=O)N2CCCc3cc(CO)c(C=O)nc32)nc1` [Example 27, N-(5-cyanopyridin-2-yl)-7-formyl-6-(hydroxymethyl)-3,4-dihydro-1,8-naphthyridine-1(2H)-carboxamide], the IC50 in test [3] was more than 3000 nM.
For the compound `COCCOc1cc(NC(=O)N2CCCc3cc(CO)c(C=O)nc32)ncc1C#N` [Example 39, N-(5-cyano-4-(2-methoxyethoxy)pyridin-2-yl)-7-formyl-6-(hydroxymethyl)-3,4-dihydro-1,8-naphthyridine-1(2H)-carboxamide], the results for the IC50 in test [5], in test [2] and in test [3] were 123 nM, 569 nM and more than 3000 nM, respectively.
With `N#Cc1cnc(NC(=O)N2CCCc3cc(CO)c(C=O)nc32)cc1O[C@H]1CCOC1` [Example 50, (S)—N-(5-cyano-4-((tetrahydrofuran-3-yl)oxy)pyridin-2-yl)-7-formyl-6-(hydroxymethyl)-3,4-dihydro-1,8-naphthyridine-1(2H)-carboxamide], the figures for the IC50 in test [5], in test [3] and in test [4] were 270 nM, 484 nM and 234 nM, respectively.
For the compound `CC(=O)N(C)Cc1cc2c(nc1C=O)N(C(=O)Nc1ccc(C#N)cn1)CCC2` [Example 68, N-(5-cyanopyridin-2-yl)-7-formyl-6-((N-methylacetamido)methyl)-3,4-dihydro-1,8-naphthyridine-1(2H)-carboxamide], the IC50 in test [1] and in test [3] was more than 3000 nM each time.
In the case of `COCCOc1cc(NC(=O)N2CCCc3cc(CN4CCN(C)CC4=O)c(C=O)nc32)ncc1C#N` [Example 101, N-(5-cyano-4-(2-methoxyethoxy)pyridin-2-yl)-7-formyl-6-((4-methyl-2-oxopiperazin-1-yl)methyl)-3,4-dihydro-1,8-naphthyridine-1(2H)-carboxamide], the results for the IC50 in test [5] and in test [2] were 82 nM and 142 nM, respectively.
On to `CC(C)Oc1cc(NC(=O)N2CCCc3cc(CN4CCN(C)CC4=O)c(C=O)nc32)ncc1C#N` [Example 92, N-(5-cyano-4-isopropoxypyridin-2-yl)-7-formyl-6-((4-methyl-2-oxopiperazin-1-yl)methyl)-3,4-dihydro-1,8-naphthyridine-1(2H)-carboxamide], for which the IC50 in test [2] was 38 nM.
In the case of `COCCNc1cc(NC(=O)N2CCCc3cc(CN4CCN(C)CC4=O)c(C=O)nc32)ncc1C#N` [Example 83, N-(5-cyano-4-((2-methoxyethyl)amino)pyridin-2-yl)-7-formyl-6-((4-methyl-2-oxopiperazin-1-yl)methyl)-3,4-dihydro-1,8-naphthyridine-1(2H)-carboxamide], the IC50 was 1 nM in test [1]; 12 nM in test [5]; 60.9 nM in test [2]; 9 nM in test [3]; 23 nM in test [4].
`COCCOc1cc(NC(=O)N2CCCc3cc(C(F)F)c(C=O)nc32)ncc1C#N` [Example 63, N-(5-cyano-4-(2-methoxyethoxy)pyridin-2-yl)-6-(difluoromethyl)-7-formyl-3,4-dihydro-1,8-naphthyridine-1(2H)-carboxamide] had an IC50 in test [3] of more than 3000 nM.
